The values below are quoted from earlier work in US12102645B2, “Fluticasone furoate nasal preparation composition” (TOKO YAKUHIN KOGYO CO., LTD., priority 2018, dated 2024).

On to `C[C@@H]1C[C@H]2[C@@H]3C[C@H](F)C4=CC(=O)C=C[C@]4(C)[C@@]3(F)[C@@H](O)C[C@]2(C)[C@@]1(OC(=O)c1ccco1)C(=O)SCF` [Fluticasone furoate, 6α,9-difluoro-17β-[(fluoromethylsulfanyl)carbonyl]-11β-hydroxy-16α-methyl-3-oxoandrosta-1,4-dien-17α-yl furan-2-carboxylate], for which the Solubility in water result is reported as “very slightly soluble”.
